From patent US6737383B1, “Herbicidal oxadiazolidines” (priority 1999, dated 2004)

Assays:
[1] = tested on: bedstraw; assay: Test B pre/postemergence bedstraw; assay type: in vivo, Galium aparine; details: for Bedstraw plant response rating: scale 0 to 10, 0 is no effect, 10 is complete control
Method in brief: (§1)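 Response is a visual 0-to-10 score relative to untreated plants, where 0 means no effect and 10 means complete control, taken twelve to sixteen days after application. Treatments went onto soil at planting and onto foliage of 1- to 4-leaf plants, using a surfactant-containing non-phytotoxic solvent.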

[2] = tested on: corn; assay: Test B pre/postemergence corn; assay type: in vivo, Zea mays
Method in brief: as §1

[3] = tested on: soybean; assay: Test B pre/postemergence soybean; assay type: in vivo, Glycine max; details: for Plant response rating, Soybean: scale of 0 to 10 where 0 is no effect and 10 is complete control
Method in brief: as §1

[4] = tested on: crabgrass; assay: Test B pre/postemergence crabgrass; assay type: in vivo, Digitaria sanguinalis
Method in brief: as §1

[5] = tested on: velvetleaf; assay: Test B pre/postemergence velvetleaf; assay type: in vivo, Abutilon theophrasti; details: for Plant response rating, Velvetleaf: scale of 0 to 10 where 0 is no effect and 10 is complete control
Method in brief: as §1

[6] = tested on: pigweed; assay: Test B pre/postemergence pigweed; assay type: in vivo, Amaranthus retroflexus; details: for Plant response rating, Redroot pigweed: scale of 0 to 10 where 0 is no effect and 10 is complete control
Method in brief: as §1

[7] = tested on: giant foxtail; assay: Test B pre/postemergence giant foxtail; assay type: in vivo, Setaria faberii
Method in brief: as §1

[8] = tested on: purple nutsedge; assay: Test B pre/postemergence purple nutsedge; assay type: in vivo, Cyperus rotundus
Method in brief: as §1

[9] = tested on: surinam grass; assay: Test B pre/postemergence surinam grass; assay type: in vivo, Brachiaria decumbens
Method in brief: as §1

[10] = tested on: wild oat; assay: Test B pre/postemergence wild oat; assay type: in vivo, Avena fatua; details: for Plant response rating, Wild oats: scale of 0 to 10 where 0 is no effect and 10 is complete control
Method in brief: as §1

[11] = tested on: morningglory; assay: Test B pre/postemergence morningglory; assay type: in vivo, Ipomoea hederacea; details: for Plant response rating, Morningglory: scale of 0 to 10 where 0 is no effect and 10 is complete control
Method in brief: as §1

[12] = tested on: rape; assay: Test B pre/postemergence rape; assay type: in vivo, Brassica napus; details: for Plant response rating, Rape: scale of 0 to 10 where 0 is no effect and 10 is complete control
Method in brief: as §1

[13] = tested on: cocklebur; assay: Test B pre/postemergence cocklebur; assay type: in vivo, Xanthium strumarium
Method in brief: as §1

[14] = tested on: wheat; assay: Test B pre/postemergence wheat; assay type: in vivo, Triticum aestivum; details: for Plant response rating, Wheat: scale of 0 to 10 where 0 is no effect and 10 is complete control
Method in brief: as §1

[15] = tested on: blackgrass; assay: Test B pre/postemergence blackgrass; assay type: in vivo, Alopecurus myosuroides
Method in brief: as §1

[16] = Preemergence, Rate 62 g/ha, scale of 0 to 10 where 0 is no effect and 10 is complete control
[17] = Postemergence, Rate 250 g/ha, scale 0 to 10
[18] = Postemergence, Rate 500 g/ha, scale of 0 to 10 where 0 is no effect and 10 is complete control
[19] = Preemergence, Rate 125 g/ha, scale of 0 to 10 where 0 is no effect and 10 is complete control
[20] = Preemergence, Rate 250 g/ha, scale 0 to 10, 0 is no effect, 10 is complete control
[21] = Preemergence, Rate 500 g/ha, scale 0 to 10, 0 is no effect, 10 is complete control
[22] = Rate 62 g/ha, Postemergence, scale 0 to 10 (0 no effect, 10 complete control)
[23] = Rate 125 g/ha, Postemergence, scale 0 to 10, 0 is no effect, 10 is complete control

CC(C)N(C(=O)n1oc(=O)n(CC(=O)N(C)C)c1=O)c1ccc(Cl)cc1 [Compound 477]
7: Crabgrass plant response rating [4, 18] | Giant foxtail plant response rating [7, 18] | Wild oats plant response rating [10, 21] | Morningglory plant response rating [11, 23] | Blackgrass plant response rating [15, 20]
5: Crabgrass plant response rating [4, 17] | B. signalgrass plant response rating ([9]; Postemergence, Rate 250 g/ha, scale 0 to 10, 0 no effect, 10 complete control) | B. signalgrass plant response rating [9, 18] | Plant response rating, Wild oats ([10]; Preemergence, Rate 125 g/ha) | Wild oats plant response rating [10, 20]
4: Soybean plant response rating [3, 21] | B. signalgrass plant response rating [9, 20]
8: Plant response rating, Crabgrass [4, 16] | Plant response rating, Crabgrass [4, 19] | Redroot pigweed plant response rating [6, 21] | Blackgrass plant response rating [15, 21]
1: Soybean plant response rating [3, 22] | Soybean plant response rating [3, 23] | Crabgrass plant response rating [4, 22] | Plant response rating, Redroot pigweed ([6]; Preemergence, Rate 125 g/ha) | Rape plant response rating [12, 17] | Plant response rating, Blackgrass [15, 19]
9: Giant foxtail plant response rating [7, 20]
2: Soybean plant response rating [3, 17] | Crabgrass plant response rating [4, 23] | Redroot pigweed plant response rating [6, 17] | Giant foxtail plant response rating [7, 22] | Giant foxtail plant response rating [7, 23] | Plant response rating, B. signalgrass [9, 19] | Rape plant response rating [12, 21]
3: Bedstraw plant response rating ([1]; Preemergence, Rate 500 g/ha) | Soybean plant response rating [3, 20]
0: Plant response rating, Bedstraw [1, 16] | Bedstraw plant response rating ([1]; Rate 125 g/ha, Postemergence) | Corn plant response rating [2, 17] | Corn plant response rating [2, 18] | Plant response rating, Corn [2, 16] | Plant response rating, Corn [2, 19] | Corn plant response rating [2, 20] | Corn plant response rating [2, 21] | Corn plant response rating [2, 22] | Corn plant response rating [2, 23] | Plant response rating, Soybean ([3]; Preemergence, Rate 62 g/ha) | Plant response rating, Soybean ([3]; Preemergence, Rate 125 g/ha) | Velvetleaf plant response rating [5, 17] | Plant response rating, Velvetleaf ([5]; Preemergence, Rate 62 g/ha) | Plant response rating, Velvetleaf ([5]; Preemergence, Rate 125 g/ha) | Velvetleaf plant response rating [5, 20] | Velvetleaf plant response rating [5, 21] | Velvetleaf plant response rating [5, 22] | Velvetleaf plant response rating [5, 23] | Plant response rating, Redroot pigweed ([6]; Preemergence, Rate 62 g/ha) | Redroot pigweed plant response rating [6, 22] | Redroot pigweed plant response rating [6, 23] | Nutsedge plant response rating [8, 17] | Plant response rating, Nutsedge [8, 19] | Nutsedge plant response rating [8, 20] | Nutsedge plant response rating [8, 21] | Nutsedge plant response rating [8, 22] | Nutsedge plant response rating [8, 23] | Plant response rating, B. signalgrass [9, 16] | B. signalgrass plant response rating [9, 22] | B. signalgrass plant response rating [9, 23] | Wild oats plant response rating [10, 17] | Plant response rating, Wild oats ([10]; Preemergence, Rate 62 g/ha) | Wild oats plant response rating [10, 22] | Wild oats plant response rating [10, 23] | Plant response rating, Morningglory ([11]; Preemergence, Rate 62 g/ha) | Plant response rating, Morningglory ([11]; Preemergence, Rate 125 g/ha) | Morningglory plant response rating [11, 20] | Morningglory plant response rating [11, 21] | Plant response rating, Rape ([12]; Preemergence, Rate 62 g/ha) | Plant response rating, Rape ([12]; Preemergence, Rate 125 g/ha) | Rape plant response rating [12, 20] | Rape plant response rating [12, 22] | Rape plant response rating [12, 23] | Cocklebur plant response rating [13, 17] | Cocklebur plant response rating [13, 18] | Plant response rating, Cocklebur [13, 16] | Plant response rating, Cocklebur [13, 19] | Cocklebur plant response rating [13, 20] | Cocklebur plant response rating [13, 21] | Cocklebur plant response rating [13, 22] | Cocklebur plant response rating [13, 23] | Wheat plant response rating [14, 17] | Plant response rating, Wheat ([14]; Preemergence, Rate 62 g/ha) | Plant response rating, Wheat ([14]; Preemergence, Rate 125 g/ha) | Wheat plant response rating [14, 20] | Wheat plant response rating [14, 21] | Wheat plant response rating [14, 22] | Wheat plant response rating [14, 23] | Plant response rating, Blackgrass [15, 16] | Blackgrass plant response rating [15, 22] | Blackgrass plant response rating [15, 23]
10: Crabgrass plant response rating [4, 20] | Crabgrass plant response rating [4, 21] | Giant foxtail plant response rating [7, 21] | Morningglory plant response rating [11, 17]
6: Redroot pigweed plant response rating [6, 20] | Giant foxtail plant response rating [7, 17] | Plant response rating, Giant foxtail [7, 16] | Plant response rating, Giant foxtail [7, 19] | B. signalgrass plant response rating [9, 21] | Morningglory plant response rating [11, 22] | Blackgrass plant response rating [15, 17] | Blackgrass plant response rating [15, 18]
